IC50 data for 19 compounds are collected here from US11878975B2, “Substituted indole compounds useful as TLR inhibitors” (BRISTOL-MYERS SQUIBB COMPANY, priority 2017, dated 2024).

What all share (assay type): cell-based
One test addresses T1, human TLR9 (Homo sapiens, UniProt Q9NR96).
T1 construct: host or cells: HEK-Blue cells
T1 sequence (Q9NR96 26-1032): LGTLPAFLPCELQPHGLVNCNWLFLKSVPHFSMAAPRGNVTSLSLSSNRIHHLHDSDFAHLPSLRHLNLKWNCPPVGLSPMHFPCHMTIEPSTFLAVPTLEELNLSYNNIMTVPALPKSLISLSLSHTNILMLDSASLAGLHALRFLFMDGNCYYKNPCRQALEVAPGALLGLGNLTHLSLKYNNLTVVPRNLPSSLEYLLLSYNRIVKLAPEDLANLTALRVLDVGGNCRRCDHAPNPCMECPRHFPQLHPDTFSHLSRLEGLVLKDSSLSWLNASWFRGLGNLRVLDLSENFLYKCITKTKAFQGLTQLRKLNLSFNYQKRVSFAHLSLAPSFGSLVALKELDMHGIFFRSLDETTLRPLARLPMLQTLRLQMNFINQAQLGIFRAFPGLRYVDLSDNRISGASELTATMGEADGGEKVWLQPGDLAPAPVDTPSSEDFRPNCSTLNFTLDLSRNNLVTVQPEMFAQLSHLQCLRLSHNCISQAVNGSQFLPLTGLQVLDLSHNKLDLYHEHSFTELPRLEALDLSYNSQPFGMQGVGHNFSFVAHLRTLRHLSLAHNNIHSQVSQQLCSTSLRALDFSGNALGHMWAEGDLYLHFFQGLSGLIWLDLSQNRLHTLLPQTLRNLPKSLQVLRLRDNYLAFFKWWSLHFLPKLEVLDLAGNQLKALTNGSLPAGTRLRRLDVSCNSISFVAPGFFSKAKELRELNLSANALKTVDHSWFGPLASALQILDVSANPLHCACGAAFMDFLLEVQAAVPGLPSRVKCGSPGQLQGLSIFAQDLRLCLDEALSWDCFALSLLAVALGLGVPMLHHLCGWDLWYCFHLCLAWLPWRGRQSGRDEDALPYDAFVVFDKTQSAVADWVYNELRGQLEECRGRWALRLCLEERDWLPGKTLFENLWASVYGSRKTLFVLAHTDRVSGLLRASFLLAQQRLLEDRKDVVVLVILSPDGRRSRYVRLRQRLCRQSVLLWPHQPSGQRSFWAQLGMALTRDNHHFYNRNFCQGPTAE
Put plainly: TLR9 inhibition reporter assay (HEK-Blue cells, SEAP reporter, ODN2006 stimulation). To be noted: HEK-Blue cells overexpressing human TLR9, SEAP reporter, ODN2006 5 nM. In short, it runs like this: (§1)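 Dose range 0.05 nM–50 μM; 30 min preincubation, RT. Agonists: TLR7 gardiquimod 7.5 μM, TLR8 R848 15.9 μM, TLR9 ODN2006 5 nM. 22 h, 37 °C, 5% CO2. SEAP (IFN-β minimal promoter with NF-κB/AP-1 sites) via colorimetric detection medium; % inhibition vs agonist+DMSO and reference-inhibitor wells.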

In a further test the target is T2, human TLR7 (Homo sapiens, UniProt Q9NYK1).
T2 construct: host or cells: HEK-Blue cells
T2 sequence (Q9NYK1 27-1049): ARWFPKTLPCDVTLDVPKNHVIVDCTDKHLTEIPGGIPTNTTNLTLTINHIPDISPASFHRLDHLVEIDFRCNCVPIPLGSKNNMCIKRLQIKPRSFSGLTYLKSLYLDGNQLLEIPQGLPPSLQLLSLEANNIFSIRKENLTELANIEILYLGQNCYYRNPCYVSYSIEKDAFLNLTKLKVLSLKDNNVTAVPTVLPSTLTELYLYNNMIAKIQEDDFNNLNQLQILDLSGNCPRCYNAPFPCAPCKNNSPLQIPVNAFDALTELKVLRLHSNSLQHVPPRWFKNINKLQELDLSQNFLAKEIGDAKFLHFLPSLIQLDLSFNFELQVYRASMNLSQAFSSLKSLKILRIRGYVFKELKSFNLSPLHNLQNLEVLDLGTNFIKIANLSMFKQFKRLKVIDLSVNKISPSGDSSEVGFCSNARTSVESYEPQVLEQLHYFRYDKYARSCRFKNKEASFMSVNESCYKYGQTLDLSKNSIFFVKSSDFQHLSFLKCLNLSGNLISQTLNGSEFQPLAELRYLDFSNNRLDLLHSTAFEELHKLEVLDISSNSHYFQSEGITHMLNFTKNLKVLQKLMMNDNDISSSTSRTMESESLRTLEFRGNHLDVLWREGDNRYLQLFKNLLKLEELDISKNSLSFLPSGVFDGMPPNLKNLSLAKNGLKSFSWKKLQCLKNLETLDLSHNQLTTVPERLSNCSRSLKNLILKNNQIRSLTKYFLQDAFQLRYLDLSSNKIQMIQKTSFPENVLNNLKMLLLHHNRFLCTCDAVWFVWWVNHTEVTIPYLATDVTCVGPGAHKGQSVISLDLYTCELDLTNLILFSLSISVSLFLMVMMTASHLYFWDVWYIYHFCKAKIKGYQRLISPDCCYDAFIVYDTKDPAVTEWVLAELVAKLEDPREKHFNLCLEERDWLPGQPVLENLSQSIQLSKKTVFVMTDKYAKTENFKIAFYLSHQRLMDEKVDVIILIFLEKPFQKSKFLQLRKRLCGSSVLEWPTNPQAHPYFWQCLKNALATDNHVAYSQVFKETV
Put plainly: TLR7 inhibition reporter assay (HEK-Blue cells, SEAP reporter, gardiquimod stimulation). To be noted: HEK-Blue cells overexpressing human TLR7, SEAP reporter, gardiquimod 7.5 μM. In short, it runs like this: as §1
On the technique in general: Reporter assays use an easily measured gene product as a stand-in for the process of interest.

For a further test, the target named is T3, human TLR8 (Homo sapiens, UniProt Q9NR97).
T3 construct: host or cells: HEK-Blue cells
T3 sequence (Q9NR97 27-1041): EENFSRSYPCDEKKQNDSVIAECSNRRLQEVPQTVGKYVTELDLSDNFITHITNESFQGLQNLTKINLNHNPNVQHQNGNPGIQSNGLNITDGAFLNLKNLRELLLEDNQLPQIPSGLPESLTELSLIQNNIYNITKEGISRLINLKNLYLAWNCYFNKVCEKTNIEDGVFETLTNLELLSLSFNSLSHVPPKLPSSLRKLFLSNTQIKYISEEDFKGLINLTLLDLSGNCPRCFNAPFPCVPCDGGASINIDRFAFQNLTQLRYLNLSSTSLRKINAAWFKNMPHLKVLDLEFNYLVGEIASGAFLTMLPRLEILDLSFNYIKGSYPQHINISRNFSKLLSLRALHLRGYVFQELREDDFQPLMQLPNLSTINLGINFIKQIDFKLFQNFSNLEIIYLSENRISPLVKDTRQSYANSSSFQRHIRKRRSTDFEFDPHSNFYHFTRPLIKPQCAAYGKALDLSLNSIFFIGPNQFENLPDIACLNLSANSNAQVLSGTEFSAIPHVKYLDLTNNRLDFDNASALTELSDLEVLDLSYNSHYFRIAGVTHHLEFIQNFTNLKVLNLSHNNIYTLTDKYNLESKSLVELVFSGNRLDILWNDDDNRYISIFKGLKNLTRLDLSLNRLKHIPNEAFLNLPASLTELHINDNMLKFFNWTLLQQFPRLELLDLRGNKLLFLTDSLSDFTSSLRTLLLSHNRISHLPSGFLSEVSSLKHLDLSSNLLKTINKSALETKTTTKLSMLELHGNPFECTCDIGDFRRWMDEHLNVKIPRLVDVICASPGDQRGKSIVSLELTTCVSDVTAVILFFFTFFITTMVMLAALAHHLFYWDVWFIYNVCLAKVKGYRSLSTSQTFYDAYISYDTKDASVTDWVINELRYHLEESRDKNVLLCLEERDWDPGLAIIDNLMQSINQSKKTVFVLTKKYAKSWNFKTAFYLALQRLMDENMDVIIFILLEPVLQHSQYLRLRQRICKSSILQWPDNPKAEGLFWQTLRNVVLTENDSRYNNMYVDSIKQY
The test is described as follows: TLR8 inhibition reporter assay (HEK-Blue cells, SEAP reporter, R848 stimulation). To be noted: HEK-Blue cells overexpressing human TLR8, SEAP reporter, R848 15.9 μM. In short, it runs like this:
as §1

By IC50 is commonly meant the midpoint of a concentration-inhibition curve. As to `Cc1cc(-c2[nH]c3ccc(C4CCC5(CC4)NC(=O)NC5=O)cc3c2C(C)C)cc(C)n1` (stereo not drawn) [Example 366, 8-(2-(2,6-dimethylpyridin-4-yl)-3-isopropyl-1H-indol-5-yl)-1,3-diazaspiro[4.5]decane-2,4-dione], the IC50 against human TLR9 is 21700 nM; at human TLR7, 6 nM; on human TLR8, 183 nM.
Turning to `Cc1cc(-c2[nH]c3ccc(C4CN(CC(C)(C)O)CCO4)cc3c2C(C)C)cc(C)n1` (stereo not drawn) [Example 358], the half-inhibitory concentration (IC50) against human TLR9 stood at 4840 nM; against human TLR7 it was 91 nM; on human TLR8, 1.9 nM.
For `Cc1cc(-c2[nH]c3ccc(C4CCCN(C(=O)C5(C)COC5)C4)cc3c2C(C)C)cc(C)n1` (stereo not drawn) [Example 204], the IC50 against human TLR9 is above 50000 nM; against human TLR7, 4 nM; on human TLR8, 55 nM.
Turning to `COc1cc(-c2[nH]c3ccc(C4CC(N(C)CCS(C)(=O)=O)C4)cc3c2C(C)C)cn2ncnc12` (stereo not drawn) [Example 583], the half-inhibitory concentration (IC50) against human TLR9 stood at 31000 nM; at human TLR7, 0.99 nM; against human TLR8, 0.32 nM.
With `CCN(C)CC(=O)N1CCOC(c2ccc3[nH]c(-c4cc(OC)c5ncnn5c4)c(C(C)C)c3c2)C1` (stereo not drawn) [Example 359, 2-(ethyl(methyl)amino)-1-(2-(3-isopropyl-2-(8-methoxy-[1,2,4]triazolo[1,5-a]pyridin-6-yl)-1H-indol-5-yl)morpholino)ethanone], the results for the IC50 at human TLR9, on human TLR7 and on human TLR8 were 3630 nM, 0.56 nM and 4.7 nM, respectively.
Regarding `Cc1c(-c2[nH]c3ccc(C4CCC(N5CC(F)(F)C5)CC4)cc3c2C(C)C)cn2ncnc2c1C` (stereo not drawn) [Example 24], the half-maximal inhibitory concentration (IC50) stood at 24900 nM against human TLR9, 7 nM on human TLR7 and 21 nM at human TLR8.
The like results for `COc1cc(-c2[nH]c3ccc(C4CN(C(=O)CN(C)C)CCO4)cc3c2C(C)C)cn2ncnc12` (stereo not drawn) [Example 334] were, in that order, 2750 nM, 0.83 nM and 3.1 nM.
For `COCCN1CC(c2ccc3[nH]c(-c4cc(C)c5ncnn5c4)c(C(C)C)c3c2)OCC1(C)C` (stereo not drawn) [Example 382], in that order: 7170 nM, 15 nM and 3.4 nM.
`COCCN1CCCC(c2ccc3[nH]c(-c4cc(OC)c5ncnn5c4)c(C(C)C)c3c2)C1` (single isomer, unassigned) [Example 252]: the results for the 50% inhibitory concentration (IC50) on human TLR9, against human TLR7 and against human TLR8 were 1160 nM, 2 nM and 1.6 nM, respectively.
For `CC(C)c1c(-c2ccnc3[nH]ncc23)[nH]c2ccc(C3CCC(Oc4ccncc4)CC3)cc12` (stereo not drawn) [Example 504], the IC50 at human TLR9 turned out to be 5010 nM; against human TLR7, 98 nM; on human TLR8, 162 nM.
In the case of `CNC(=O)CN1CCOC(c2ccc3[nH]c(-c4cc(C)c5ncnn5c4)c(C(C)C)c3c2)C1` (stereo not drawn) [Example 307], the IC50 was above 50000 nM against human TLR9, 8 nM against human TLR7 and 47 nM at human TLR8.
Turning to `Cc1cc(-c2[nH]c3ccc(C4CN(C(=O)CN(C)C)CCO4)cc3c2C(C)C)cn2ncnc12` (stereo not drawn) [Example 331], the half-maximal inhibitory concentration (IC50) turned out to be 3620 nM at human TLR9, 1 nM at human TLR7 and 4.6 nM on human TLR8.
As to `COc1cc(-c2[nH]c3ccc(C4CN(CCS(C)(=O)=O)C4)cc3c2C(C)C)cn2ncnc12` [Example 265], the concentration for half-maximal inhibition (IC50) against human TLR9 is 3420 nM; at human TLR7 it was 1 nM; against human TLR8 it was 2.9 nM.
On to `COc1cc(-c2[nH]c3ccc(CC4CNC4)cc3c2C(C)C)cn2ncnc12` [Example 430], for which the IC50 amounted to 860 nM on human TLR9, 12 nM on human TLR7 and 41 nM at human TLR8.
With `COc1cc(-c2[nH]c3ccc(C4CCC(NC(=O)CN5CCS(=O)(=O)CC5)CC4)cc3c2C(C)C)cn2ncnc12` (stereo not drawn) [Example 144], the IC50 against human TLR9 was 33300 nM; against human TLR7 it was 3 nM; on human TLR8, 9.7 nM.
On to `CNC(=O)CNC1CCC(c2ccc3[nH]c(-c4cc(C)c5ncnn5c4)c(C(C)C)c3c2)CC1` (single isomer, unassigned) [Example 163, 2-((4-(3-isopropyl-2-(8-methyl-[1,2,4]triazolo[1,5-a]pyridin-6-yl)-1H-indol-5-yl)cyclohexyl)amino)-N-methylacetamide], for which the IC50 against human TLR9 was 2240 nM; against human TLR7 it was 0.63 nM; at human TLR8, 0.64 nM.
Consider `CCc1c(-c2ccc(OC)c(OC)c2)[nH]c2ccc(CN3CC4CNCC4C3)cc12` (stereo not drawn) [Example 391], for which the half-maximal inhibitory concentration (IC50) was 527 nM against human TLR9, 164 nM against human TLR7 and 354 nM at human TLR8.
Turning to `COc1cc(-c2[nH]c3ccc(C4CC(NCC(=O)N(C)C)C4)cc3c2C(C)C)cn2ncnc12` (stereo not drawn) [Example 570], the IC50 against human TLR9 is 3450 nM; against human TLR7 it was 0.93 nM; at human TLR8 it was 0.9 nM.
Take `Cc1c(-c2[nH]c3ccc(C4CN(CC5CCOC5)C4)cc3c2C(C)C)cn(C)c(=O)c1Cl` (stereo not drawn) [Example 499]: the IC50 against human TLR9 amounted to 9970 nM; against human TLR7 it was 43 nM; at human TLR8, 25 nM.
